According to ChEMBL document CHEMBL4507324 (2021):

Tests used:
Settings in all cases: Compound concentration 100.0 nM
[1] = target: Cyclin-dependent kinase 4 (Homo sapiens) (UniProt P11802)
[2] = target: Dual specificity protein kinase TTK (Homo sapiens) (UniProt P33981)
[3] = target: Serine/threonine-protein kinase TAO2 (Homo sapiens) (UniProt Q9UL54)
[4] = target: ALK tyrosine kinase receptor (Homo sapiens) (UniProt Q9UM73)
[5] = target: Dual specificity mitogen-activated protein kinase kinase 4 (Homo sapiens) (UniProt P45985)
[6] = target: Mitogen-activated protein kinase kinase kinase 10 (Homo sapiens) (UniProt Q02779)
[7] = system: Tyrosine-protein kinase ABL1 (Homo sapiens), P00519 [M351T]
[8] = target: Serine/threonine-protein kinase PAK 4 (Homo sapiens) (UniProt O96013)
[9] = target: Serine/threonine-protein kinase MRCK alpha (Homo sapiens) (UniProt Q5VT25)
[10] = target: Serine/threonine-protein kinase MRCK beta (Homo sapiens) (UniProt Q9Y5S2)
[11] = target: BMP-2-inducible protein kinase (Homo sapiens) (UniProt Q9NSY1)
[12] = target: Insulin-like growth factor 1 receptor (Homo sapiens) (UniProt P08069)
[13] = target: Aurora kinase A (Homo sapiens) (UniProt O14965)
[14] = target: Myosin-IIIa (Homo sapiens) (UniProt Q8NEV4)
Myosin-IIIa (Homo sapiens), sequence (Q8NEV4 whole entry): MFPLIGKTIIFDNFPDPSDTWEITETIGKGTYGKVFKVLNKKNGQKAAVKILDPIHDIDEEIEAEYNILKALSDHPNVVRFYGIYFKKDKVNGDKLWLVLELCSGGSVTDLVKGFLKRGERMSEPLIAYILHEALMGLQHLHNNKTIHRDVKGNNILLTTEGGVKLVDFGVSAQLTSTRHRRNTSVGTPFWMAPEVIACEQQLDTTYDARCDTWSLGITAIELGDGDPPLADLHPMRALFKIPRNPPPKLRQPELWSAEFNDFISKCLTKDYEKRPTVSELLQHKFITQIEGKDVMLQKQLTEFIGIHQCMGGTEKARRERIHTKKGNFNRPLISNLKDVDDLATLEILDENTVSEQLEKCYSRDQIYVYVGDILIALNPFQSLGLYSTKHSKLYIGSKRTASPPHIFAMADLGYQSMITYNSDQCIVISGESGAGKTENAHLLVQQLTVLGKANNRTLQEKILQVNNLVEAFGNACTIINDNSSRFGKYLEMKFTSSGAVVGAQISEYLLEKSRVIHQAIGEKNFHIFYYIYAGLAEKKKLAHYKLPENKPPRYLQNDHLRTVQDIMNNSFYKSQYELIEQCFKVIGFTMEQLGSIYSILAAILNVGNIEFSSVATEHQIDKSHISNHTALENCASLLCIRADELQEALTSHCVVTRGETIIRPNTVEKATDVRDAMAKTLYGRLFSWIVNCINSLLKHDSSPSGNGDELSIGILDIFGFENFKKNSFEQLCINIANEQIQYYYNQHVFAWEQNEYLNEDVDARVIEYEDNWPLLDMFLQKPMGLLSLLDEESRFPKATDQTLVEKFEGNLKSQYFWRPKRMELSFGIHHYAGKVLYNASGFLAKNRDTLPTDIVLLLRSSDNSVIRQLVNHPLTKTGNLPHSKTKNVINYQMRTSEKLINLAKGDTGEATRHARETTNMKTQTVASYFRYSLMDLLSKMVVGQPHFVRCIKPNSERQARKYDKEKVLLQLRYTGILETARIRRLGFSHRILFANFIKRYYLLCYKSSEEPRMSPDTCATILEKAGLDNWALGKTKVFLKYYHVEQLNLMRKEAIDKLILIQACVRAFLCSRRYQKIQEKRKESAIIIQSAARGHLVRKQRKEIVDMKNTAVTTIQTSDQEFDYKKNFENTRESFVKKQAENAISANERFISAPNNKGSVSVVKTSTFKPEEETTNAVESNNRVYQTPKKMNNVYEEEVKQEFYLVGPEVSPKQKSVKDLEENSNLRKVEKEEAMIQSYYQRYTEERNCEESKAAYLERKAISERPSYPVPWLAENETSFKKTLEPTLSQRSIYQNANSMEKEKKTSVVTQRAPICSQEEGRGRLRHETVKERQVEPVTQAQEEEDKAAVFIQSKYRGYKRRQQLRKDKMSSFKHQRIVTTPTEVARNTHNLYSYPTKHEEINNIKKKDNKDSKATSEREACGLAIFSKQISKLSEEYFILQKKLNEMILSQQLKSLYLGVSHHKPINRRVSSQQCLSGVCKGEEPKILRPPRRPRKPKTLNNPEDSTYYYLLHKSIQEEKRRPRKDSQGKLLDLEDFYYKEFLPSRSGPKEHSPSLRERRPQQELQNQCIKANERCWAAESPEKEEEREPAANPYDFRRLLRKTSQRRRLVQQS

[15] = target: Serine/threonine-protein kinase PLK1 (Homo sapiens) (UniProt P53350)
[16] = target: Serine/threonine-protein kinase Nek3 (Homo sapiens) (UniProt P51956)
[17] = target: Serine/threonine-protein kinase tousled-like 2 (Homo sapiens) (UniProt Q86UE8)
[18] = target: Serine/threonine-protein kinase WNK4 (Homo sapiens) (UniProt Q96J92)
[19] = target: Ephrin type-B receptor 2 (Homo sapiens) (UniProt P29323)
[20] = target: Calcium/calmodulin-dependent protein kinase type 1B (Homo sapiens) (UniProt Q6P2M8)
Calcium/calmodulin-dependent protein kinase type 1B (Homo sapiens), sequence (Q6P2M8 whole entry): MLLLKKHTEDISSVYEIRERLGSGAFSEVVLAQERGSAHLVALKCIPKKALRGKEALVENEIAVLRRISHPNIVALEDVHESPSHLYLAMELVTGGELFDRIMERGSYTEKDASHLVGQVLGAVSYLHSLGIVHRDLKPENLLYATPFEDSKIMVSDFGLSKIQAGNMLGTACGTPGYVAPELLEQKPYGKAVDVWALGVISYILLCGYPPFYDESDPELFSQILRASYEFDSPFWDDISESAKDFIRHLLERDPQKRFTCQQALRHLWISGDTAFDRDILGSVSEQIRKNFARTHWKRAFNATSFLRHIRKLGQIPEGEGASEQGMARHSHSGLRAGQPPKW

[21] = target: Serine/threonine-protein kinase PLK3 (Homo sapiens) (UniProt Q9H4B4)
[22] = target: Serine/threonine-protein kinase SIK2 (Homo sapiens) (UniProt Q9H0K1)
[23] = target: AP2-associated protein kinase 1 (Homo sapiens) (UniProt Q2M2I8)
[24] = target: Serine/threonine-protein kinase PAK 2 (Homo sapiens) (UniProt Q13177)
[25] = target: Testis-specific serine/threonine-protein kinase 1 (Homo sapiens) (UniProt Q9BXA7)
Testis-specific serine/threonine-protein kinase 1 (Homo sapiens), sequence (Q9BXA7 whole entry): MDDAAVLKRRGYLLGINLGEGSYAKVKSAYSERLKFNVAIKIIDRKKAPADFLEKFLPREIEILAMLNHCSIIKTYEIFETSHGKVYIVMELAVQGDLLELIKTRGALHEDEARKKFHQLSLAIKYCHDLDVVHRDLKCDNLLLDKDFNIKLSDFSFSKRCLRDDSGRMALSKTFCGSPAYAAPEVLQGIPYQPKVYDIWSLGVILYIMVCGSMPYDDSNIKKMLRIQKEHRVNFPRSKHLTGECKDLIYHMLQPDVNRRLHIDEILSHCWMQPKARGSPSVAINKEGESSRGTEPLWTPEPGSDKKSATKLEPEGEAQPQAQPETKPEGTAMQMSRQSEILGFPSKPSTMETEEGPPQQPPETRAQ

[26] = target: Serine/threonine-protein kinase 32A (Homo sapiens) (UniProt Q8WU08)
[27] = system: ALK tyrosine kinase receptor (Homo sapiens), Q9UM73 [C1156Y]
[28] = target: Phosphatidylinositol 4,5-bisphosphate 3-kinase catalytic subunit alpha isoform (Homo sapiens) (UniProt P42336)
[29] = target: Serine/threonine-protein kinase Nek10 (Homo sapiens) (UniProt Q6ZWH5)
[30] = target: Ribosomal protein S6 kinase alpha-6 (Homo sapiens) (UniProt Q9UK32)
Ribosomal protein S6 kinase alpha-6 (Homo sapiens), sequence (Q9UK32 whole entry, canonical isoform): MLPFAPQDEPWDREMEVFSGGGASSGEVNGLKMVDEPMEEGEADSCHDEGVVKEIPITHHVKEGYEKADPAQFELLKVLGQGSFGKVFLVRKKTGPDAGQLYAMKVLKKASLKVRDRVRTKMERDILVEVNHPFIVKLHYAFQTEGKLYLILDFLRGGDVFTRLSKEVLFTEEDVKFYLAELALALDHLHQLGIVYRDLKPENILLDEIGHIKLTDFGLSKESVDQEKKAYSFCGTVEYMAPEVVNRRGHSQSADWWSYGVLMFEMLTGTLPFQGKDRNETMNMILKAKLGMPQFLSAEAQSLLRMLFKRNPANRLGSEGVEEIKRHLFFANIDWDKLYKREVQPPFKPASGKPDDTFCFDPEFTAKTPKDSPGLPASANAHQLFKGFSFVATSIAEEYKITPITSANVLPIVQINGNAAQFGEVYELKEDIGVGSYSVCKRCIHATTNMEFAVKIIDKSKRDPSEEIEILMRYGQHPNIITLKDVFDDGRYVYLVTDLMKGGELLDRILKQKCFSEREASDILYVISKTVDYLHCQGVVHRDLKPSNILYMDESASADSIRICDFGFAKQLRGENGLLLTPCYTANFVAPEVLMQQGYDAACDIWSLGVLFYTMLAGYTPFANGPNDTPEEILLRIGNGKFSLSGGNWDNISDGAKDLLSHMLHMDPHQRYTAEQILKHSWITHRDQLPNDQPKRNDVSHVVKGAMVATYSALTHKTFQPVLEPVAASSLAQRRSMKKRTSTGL

[31] = target: Bone morphogenetic protein receptor type-2 (Homo sapiens) (UniProt Q13873)
[32] = system: Proto-oncogene tyrosine-protein kinase receptor Ret (Homo sapiens), P07949 [V804M]
Proto-oncogene tyrosine-protein kinase receptor Ret (Homo sapiens), P07949 [V804M], sequence (P07949 whole entry V804M): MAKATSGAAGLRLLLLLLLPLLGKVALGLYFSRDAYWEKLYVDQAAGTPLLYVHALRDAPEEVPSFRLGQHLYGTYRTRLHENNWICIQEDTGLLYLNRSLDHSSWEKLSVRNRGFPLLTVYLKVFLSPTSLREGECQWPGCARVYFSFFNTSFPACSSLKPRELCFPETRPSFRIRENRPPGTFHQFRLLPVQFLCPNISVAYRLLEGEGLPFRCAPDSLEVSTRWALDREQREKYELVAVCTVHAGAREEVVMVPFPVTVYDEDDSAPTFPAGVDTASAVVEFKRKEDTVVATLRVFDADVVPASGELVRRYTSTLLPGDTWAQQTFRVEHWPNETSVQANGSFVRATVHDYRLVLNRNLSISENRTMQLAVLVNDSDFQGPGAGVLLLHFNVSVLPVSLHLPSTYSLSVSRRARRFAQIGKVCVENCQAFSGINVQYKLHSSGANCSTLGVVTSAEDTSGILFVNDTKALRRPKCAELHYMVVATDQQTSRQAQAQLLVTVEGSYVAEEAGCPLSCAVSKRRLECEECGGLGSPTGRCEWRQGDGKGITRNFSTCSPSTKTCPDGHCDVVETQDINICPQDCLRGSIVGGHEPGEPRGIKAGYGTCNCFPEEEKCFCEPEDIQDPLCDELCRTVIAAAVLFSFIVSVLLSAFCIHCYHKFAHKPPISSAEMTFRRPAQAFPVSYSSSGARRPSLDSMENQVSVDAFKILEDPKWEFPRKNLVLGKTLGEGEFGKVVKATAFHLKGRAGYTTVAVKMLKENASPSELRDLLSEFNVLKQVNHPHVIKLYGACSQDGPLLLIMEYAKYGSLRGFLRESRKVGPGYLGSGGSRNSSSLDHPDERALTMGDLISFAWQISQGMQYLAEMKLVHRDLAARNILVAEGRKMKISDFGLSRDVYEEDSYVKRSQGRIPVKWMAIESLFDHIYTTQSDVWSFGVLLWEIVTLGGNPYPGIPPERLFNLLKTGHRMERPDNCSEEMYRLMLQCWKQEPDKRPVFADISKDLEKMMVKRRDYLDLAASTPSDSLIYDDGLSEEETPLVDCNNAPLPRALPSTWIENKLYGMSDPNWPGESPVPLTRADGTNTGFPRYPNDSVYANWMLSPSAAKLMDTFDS

[33] = target: Phosphatidylinositol 5-phosphate 4-kinase type-2 beta (Homo sapiens) (UniProt P78356)
[34] = target: Calcium/calmodulin-dependent protein kinase type II subunit alpha (Homo sapiens) (UniProt Q9UQM7)
[35] = target: Ribosomal protein S6 kinase alpha-6 (Homo sapiens) (UniProt Q9UK32); remark: listed apart in the source
[36] = target: Phosphatidylinositol 4,5-bisphosphate 3-kinase catalytic subunit gamma isoform (Homo sapiens) (UniProt P48736)
[37] = target: Dual specificity tyrosine-phosphorylation-regulated kinase 2 (Homo sapiens) (UniProt Q92630)
Dual specificity tyrosine-phosphorylation-regulated kinase 2 (Homo sapiens), sequence (Q92630 whole entry, the tested form may be a part): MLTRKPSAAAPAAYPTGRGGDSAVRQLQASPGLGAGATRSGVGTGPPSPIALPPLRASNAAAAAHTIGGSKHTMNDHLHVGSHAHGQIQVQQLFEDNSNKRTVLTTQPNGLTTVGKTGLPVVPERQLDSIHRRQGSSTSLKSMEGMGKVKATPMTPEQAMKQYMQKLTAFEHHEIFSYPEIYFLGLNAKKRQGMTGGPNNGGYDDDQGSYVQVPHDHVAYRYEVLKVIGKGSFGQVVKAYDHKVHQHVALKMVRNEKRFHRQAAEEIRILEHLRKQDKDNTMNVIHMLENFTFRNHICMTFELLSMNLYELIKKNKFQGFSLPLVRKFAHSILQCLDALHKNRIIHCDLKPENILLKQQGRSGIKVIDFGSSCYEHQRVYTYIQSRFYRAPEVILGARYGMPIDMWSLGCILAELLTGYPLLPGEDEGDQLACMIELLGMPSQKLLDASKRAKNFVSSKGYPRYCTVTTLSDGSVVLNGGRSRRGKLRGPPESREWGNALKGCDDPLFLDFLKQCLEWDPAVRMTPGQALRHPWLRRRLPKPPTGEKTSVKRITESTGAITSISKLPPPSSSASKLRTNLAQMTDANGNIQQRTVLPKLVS

[38] = target: Epithelial discoidin domain-containing receptor 1 (Homo sapiens) (UniProt Q08345)
[39] = target: Receptor tyrosine-protein kinase erbB-2 (Homo sapiens) (UniProt P04626)
[40] = target: cAMP-dependent protein kinase catalytic subunit beta (Homo sapiens) (UniProt P22694)
[41] = target: Cyclin-dependent kinase 8 (Homo sapiens) (UniProt P49336)
[42] = system: Tyrosine-protein kinase ABL1 (Homo sapiens), P00519 [Y253F]
[43] = target: Tyrosine-protein kinase Lck (Homo sapiens) (UniProt P06239)
[44] = target: Leucine-rich repeat serine/threonine-protein kinase 2 (Homo sapiens) (UniProt Q5S007)
[45] = target: cGMP-dependent protein kinase 1 (Homo sapiens) (UniProt Q13976)

Measured: residual activity

CS(=O)(=O)N1CCCC(NC(=O)[C@H](CCC2CCCCC2)NC(=O)c2ccc(CNc3ncnc4c3nnn4-c3ccccc3)cc2)C1 (stereo not given in full) [SR-301]
inactive: [1] 100% | [2] 91% | [3] 93% | [4] 100% | [5] 100% | [6] 73% | [7] 100% | [8] 100% | [9] 100% | [10] 90% | [11] 84% | [12] 100% | [13] 100% | [14] 97% | [15] 80% | [16] 100% | [17] 82% | [18] 100% | [19] 87% | [20] 100% | [21] 100% | [22] 86% | [23] 90% | [24] 100% | [25] 85% | [26] 57% | [27] 100% | [28] 98% | [29] 100% | [30] 100% | [31] 100% | [32] 82% | [33] 100% | [34] 100% | [35] 100% | [36] 85% | [37] 100% | [38] 89% | [39] 100% | [40] 92% | [41] 100% | [42] 84% | [43] 100% | [44] 51% | [45] 95%

CS(=O)(=O)N1CCCC(NC(=O)[C@H](CCC2CCCCC2)NC(=O)c2ccc(CNC(=O)c3cnc4ccccn34)cc2)C1 (stereo not given in full) [SR-302]
inactive: [1] 100% | [2] 91% | [3] 91% | [4] 100% | [5] 100% | [6] 100% | [7] 100% | [8] 100% | [9] 100% | [10] 100% | [11] 92% | [12] 73% | [13] 100% | [14] 99% | [15] 100% | [16] 100% | [17] 89% | [18] 80% | [19] 100% | [20] 77% | [21] 96% | [22] 100% | [23] 92% | [24] 93% | [25] 94% | [26] 81% | [27] 100% | [28] 86% | [29] 100% | [30] 97% | [31] 100% | [32] 100% | [33] 100% | [34] 100% | [35] 82% | [36] 96% | [37] 100% | [39] 100% | [40] 100% | [42] 76% | [43] 83% | [44] 64% | [45] 100%
active: [38] 0.1% | [41] 42%
